The source of these data is US20250195342A1, “DRY COMPOSITIONS AND METHODS FOR FORMING STABLE LIQUID CLEANSING FORMULATIONS” (Conopco, Inc., d/b/a UNILEVER, priority 2022, published 2025).

The text on this series:
Silver ion solubility, as referred to herein, is a value derived from a solubility product (Ksp) in water at 25 degrees centigrade, a well known parameter that is reported in numerous sources.

On to `[Cl][Ag]` [Silver chloride], for which the “Silver Ion Solubility [Ag+]” value turned out to be 1.3 × 10″^5 mol/L.
In the case of `[Br][Ag]` [Silver bromide], the “Silver Ion Solubility [Ag+]” value is recorded as “Silver bromide 1 5.3 × 10−^13 7.3 × 10″^7 mol/L”.
